Columns and labels:
[1] = test system: Pcy mice; test: Efficacy in the Pcy model of PKD; format: in vivo, mouse; details: for BUN (mean) / Cystic Index (mean) / KW/BW Ratio (mean): 25 mg/kg s.c. for oligonucleotides, sacrificed at 15 weeks of age
Description: (§1) Two experimental models of PKD were used to evaluate efficacy. Pkd2-KO mice spontaneously develop polycystic kidney disease, and were used as a model of ADPKD. See Patel et al., PNAS, 2013; 110 (26): 10765-10770. Pcy mice bearing a mutation in Nphp3 spontaneously develop polycystic kidney disease, with a slower progression of disease than that observed in the Pkd2-KO mice. The Pcy model is used as a model of nephronophthisis. See Happe and Peters, Nat. Rev. Nephrol., 2014; 10:587-601.
(§2) Cyst index is a histological measurement of cystic area relative to total kidney area. For this analysis, one kidney was perfused with cold PBS and 4% (wt/vol) paraformaldehyde and then harvested. Kidneys were fixed with 4% paraformaldehyde for 2 hours and then, embedded in paraffin for sectioning. Sagittal sections of kidneys were stained with hematoxylin and eosin (H&E). All image processing steps were automated and took place in freely available and open source software: An R1 script which used functions from the EBImage Bioconductor package2 and the ImageMagick3 suite of image processing tools. Kidney H&E images in Aperio SVS format were converted to TIFF images, and the first frame was retained for image analysis. First, the total kidney section area was calculated using image segmentation. Image segmentation was similarly used to find all internal structures including kidney cyst. A filter was applied to remove all objects less than a mean radius of three pixels. The cystic index is the image area associated with cysts divided by the total kidney areas. Cystic index was separately calculated for longitudinal and transverse kidney sections for each individual animal. Combined cystic index of individual animals were compared for each treatment groups.
RG4326 was tested in the Pcy mouse model. Wild-type mice were used as control group. From four weeks of age, Pcy mice were treated once per week via subcutaneous injection with RG4326 at a dose of 25 mg/kg, tool anti-miR-17 at a dose of 25 mg/kg, control oligonucleotide RG5124 at a dose of 25 mg/kg, or PBS. Each treatment group contained 15 male mice. Three treatments were administered on […] days of age, and weekly thereafter at 6, 7, 8, 9, 10, 11, 12, 13, and 14 weeks of age. Also tested was tolvaptan, a vasopressin V2-receptor antagonist (VRA) that is prescribed to some patients with polycystic kidney disease. Mice were sacrificed at 15 weeks of age. Body weight was recorded. One kidney was extracted and weighed and the other processed for histological analysis to calculate cyst index as described for the study in the Pkhd1/cre; Pkd2^F/F. Blood urea nitrogen (BUN) level and serum creatinine level were measured. Statistical significance was calculated by one-way ANOVA with Dunnett's multiple correction.

[2] = test system: Pkd2-KO mice; test: Efficacy in the Pkd2-KO model of PKD; format: in vivo, mouse; details: for BUN (mean) / Cystic Index (mean) / KW/BW Ratio (mean) / Serum Creatinine (mean): 20 mg/kg s.c. on days 10, 11, 12, 19 of age, sacrificed at 28 days
Description: as §1
RG4326 was tested in the Pkd2-KO mouse model of ADPKD. This model is also referred to as the PKD2-KO model. Wild-type mice were used as control mice. An oligonucleotide complementary to a miRNA unrelated to miR-17 was used as a treatment control for specificity (RG5124).
On each of days 10, 11 12, and 19 of age, sex-matched littermates of mice were administered a subcutaneous injection of RG4326 at a dose of 20 mg/kg (n=12), RG5124 at a dose of 20 mg/kg (n=12), tool anti-miR-17 at a dose of 20 mg/kg (n=12), or PBS (n=12). Mice were sacrificed at 28 days of age, and kidney weight, body weight, cyst index, serum creatinine level, and blood urea nitrogen (BUN) level were measured. BUN level is a marker of kidney function. A higher BUN level correlates with poorer kidney function, thus a reduction in BUN level is an indicator of reduced kidney injury and damage and improved function. Statistical significance was calculated by one-way ANOVA with Dunnett's multiple correction.
as §2

[3] = test system: miR-17; test: miR-17 luciferase reporter assay in HeLa cells; format: cell-based; details: for Luciferase Fold Derepression: mean
Description: In vitro potency was evaluated using a luciferase reporter assay. A luciferase reporter plasmid for miR-17, with […] in the 3′-UTR of the luciferase gene. Compounds of longer lengths were selected if their maximum inhibition was greater than that of the tool anti-miR-17 compound. As shorter compounds, such as 9-mers, are typically not maximally active in the same assay conditions used for longer compounds, shorter compounds were selected based on maximum inhibition relative to appropriate control compounds. In this way, compounds that are diverse in both length and chemical composition were included in further testing.
One assay employed was the luciferase assay. […] Accordingly, the luciferase assay transfection conditions were optimized for short anti-miR-17 compounds, so that the inhibitory activity of the compounds could be measured.
The luciferase reporter plasmid for miR-17 contained a fully complementary miR-17 binding site in the 3′-UTR of the luciferase gene. HeLa cells were transfected with the microRNA mimic and its cognate luciferase reporter, followed by transfection with anti-miR-17 at doses of […], 3, 10, 30, 100, and 300 nM. At the end of the 24-hour transfection period, luciferase activity was measured. As shown in Table 2-1, RG4047, while not as potent as RG4326, inhibited miR-17 activity in a dose dependent manner. SD indicates standard deviation.
Additional in vitro assays were conducted to further explore the potency of RG4326. A luciferase reporter assay was used to test the ability of RG4326 to inhibit the miR-17 family members miR-17, miR-20a, miR-93, and miR-106b. A luciferase reporter plasmid for each of miR-20a, miR-93, and miR-106b was constructed, with a fully complementary microRNA binding site in the 3′-UTR of the luciferase gene. HeLa cells were transfected with the microRNA mimic and its cognate luciferase reporter, followed by transfection with anti-miR-17 at a dose of 100 nm. […] As RG4326 is 100% complementary to the other miR-17 family members not tested, miR-20b and […], it is expected to inhibit these microRNAs as well.

[4] = 20 mg/kg, not statistically significant
[5] = 0.001 nM anti-miR-17, 24-hour transfection
[6] = 3 nM anti-miR-17, 24-hour transfection
[7] = 10 nM anti-miR-17, 24-hour transfection
[8] = 30 nM anti-miR-17, 24-hour transfection
[9] = 100 nM anti-miR-17, 24-hour transfection
[10] = 300 nM anti-miR-17, 24-hour transfection

COC1C(OP(=O)(S)OC[C@H]2O[C@@H](n3cnc4c(N)ncnc43)C(F)C2OP(=O)(S)OC[C@H]2O[C@@H](n3ccc(N)nc3=O)C(F)C2OP(=O)(S)OC[C@H]2O[C@@H](n3ccc(=O)[nH]c3=O)C(F)C2OP(=O)(S)OC[C@H]2O[C@@H](n3ccc(=O)[nH]c3=O)C(OC)C2OP(=O)(S)OC[C@]23O[C@@H](n4ccc(=O)[nH]c4=O)C(O[C@H]2C)C3OP(=O)(S)OC[C@]23O[C@@H](n4cnc5c(=O)[nH]c(N)nc54)C(O[C@H]2C)C3O)[C@@H](COP(=O)(S)OC2C3O[C@@H](C)[C@]2(COP(=O)(S)OC2C4O[C@@H](C)[C@]2(CO)O[C@H]4n2cnc4c(N)ncnc42)O[C@H]3n2cnc3c(=O)[nH]c(N)nc32)O[C@H]1n1ccc(N)nc1=O (stereo in doubt) [RG4326, ASGSCMAFCFUFUMUSGS]
BUN (mean) [1]: 19.7
Cystic Index (mean) [1]: 0.16
KW/BW Ratio (mean) [1]: 18.1
mean KW/BW ratio lower relative to PBS-treated mice ([1]; 25 mg/kg, p=0.0055): 19%
BUN reduced relative to PBS-treated mice ([1]; 25 mg/kg, p=0.0070): 16%
cyst index reduced compared to PBS ([1]; 25 mg/kg, p=0.016): 34%
BUN (mean) [2]: 72.92 mg/dL
Cystic Index (mean) [2]: 50.3
KW/BW Ratio (mean) [2]: 40.98 mg/g
Serum Creatinine (mean) [2]: 0.26 mg/dL
Mean serum creatinine levels lower than in PBS mice [2, 4]: 18%
mean reduction in cyst index compared to PBS [2, 4]: 12%
mean KW/BW ratio lower than in PBS mice ([2]; 20 mg/kg, p=0.0099): 29%
Luciferase Fold Derepression [3, 5]: 1
Luciferase Fold Derepression [3, 6]: 5.3
Luciferase Fold Derepression [3, 7]: 10.4
Luciferase Fold Derepression [3, 8]: 14.1
Luciferase Fold Derepression [3, 9]: 13.9
Luciferase Fold Derepression [3, 10]: 11.7
Mean luciferase fold derepression, miR-17 ([3]; anti-miR-17 at 100 nm): 13.1

5′-CTGCACTGTAAGCACTTTG-3′ (all phosphorothioate, sugars by position and methylation of C not given here; DNA, 2'-MOE and S-cEt sugars) [Tool anti-miR-17, reference compound]
efficacy on KW/BW ratio, BUN or cyst index (in words) [1]: did not result in statistically significant reductions
effect on KW/BW ratio, BUN and cyst index (in words) ([2]; 20 mg/kg): no statistically significant changes were observed

ASCSAMAFUFGFCMASCS [RG5124, reference compound]
efficacy on KW/BW ratio, BUN or cyst index (in words) [1]: did not result in statistically significant reductions
BUN (mean) [1]: 21.2
Cystic Index (mean) [1]: 0.23
KW/BW Ratio (mean) [1]: 21.4
effect on KW/BW ratio, BUN and cyst index (in words) ([2]; 20 mg/kg): did not reduce kidney weight to body weight ratio, cyst index, or BUN
BUN (mean) [2]: 86.67 mg/dL
Cystic Index (mean) [2]: 56.67
KW/BW Ratio (mean) [2]: 55.35 mg/g
Serum Creatinine (mean) [2]: 0.31 mg/dL
Luciferase Fold Derepression [3, 5]: 1
Luciferase Fold Derepression [3, 6]: 1.2
Luciferase Fold Derepression [3, 7]: 2.6
Luciferase Fold Derepression [3, 8]: 1
Luciferase Fold Derepression [3, 9]: 0.7
Luciferase Fold Derepression [3, 10]: 1

Source: patent US20250333745A1, “METHODS AND COMPOSITIONS FOR TREATMENT OF POLYCYSTIC KIDNEY DISEASE” (Regulus Therapeutics Inc., priority 2016, published 2025)
